Measurements taken from patent US20230000808A1, “COMPOSITIONS AND METHODS EXCLUDING OR WITH REDUCED GLUTAMINE FOR THE TREATMENT OF HEMOGLOBINOPATHIES AND THALASSEMIAS” (AXCELLA HEALTH INC., priority 2019, published 2023).

Legend:
TNFα = assay: LPS-induced TNF-α secretion in primary human monocyte-derived macrophages (ELISA); format: cell-based; settings: for TNF-α Measurements Mean: LPS, baseline subtracted
Procedure: (§1) Primary human PMBC derived macrophages were seeded on day 0 at 3.0×10^4 cells per well in 96-well microplates (ThermoFisher) in Dulbecco's Modified Eagle Medium (DMEM) (Gibco) supplemented with penicillin-streptomycin (Hyclone) and 10% heat inactivated fetal bovine serum (HI-FBS) (Atlanta Bio) and incubated overnight at 37° C., 5% CO2. On day 1, cells were washed once with 150 μl per well DPBS (Gibco) and treated with 75 μl of: • a. […] The same medium described above with one amino acid at various concentrations including complete dropout. […] On day 3, the supernatant was collected and immediately frozen in −80° C. freezer. Cells were washed once with 150 μl DPBS and viability was assessed using the WST-8 Cell Proliferation Cytotoxicity Assay (Dojindo). […] Protein levels in supernatant samples were analyzed by ELISA for IL-6 and TNFα using commercially available kits (R&D Systems) according to manufacturer-supplied protocols.

IL-6 [1] = assay: LPS-induced IL-6 secretion in primary human monocyte-derived macrophages (ELISA); format: cell-based; set-up: Donor 1 IL-6 Measurements Mean: unit not given here; settings: for Donor 1 IL-6 Measurements Mean / Donor 2 IL-6 Measurements Mean / Donor 3 IL-6 Measurements Mean: LPS, baseline subtracted
Procedure: as §1

IL-6 [2] = assay: Secreted IL-6 in HLMVEC treated with TNF-α (FirePlex); format: cell-based, human; settings: HLMVEC + 0.5 ng/mL TNF-α, 24 h; amino acids 20x HMDB, Nac/Cit/Car 5 mM as bracketed
Procedure: (§2) Primary Human Lung Microvascular Endothelial Cells (HLMVEC; Lonza) were seeded at 6,000 cells per well in Endothelial Cell Growth Basal Medium-2 (Lonza) supplemented with Fetal Bovine Serum (FBS; Lonza), human EGF (Lonza), human VEGF (Lonza), R3-Insulin-like Growth Factor-1 (Lonza), ascorbic acid (Lonza), hydrocortisone (Lonza), human FGF-beta (Lonza), and gentamicin/amphotericin-b (Lonza) in a 96-well plate (Thermo Fisher). The cells were incubated for 45 minutes at room temperature, then incubated overnight at 37° C./5% CO2.
(§3) Following overnight incubation, cell were washed once with 150 μL of Dulbecco's phosphate buffered saline (DPBS; Gibco), and then treated with Endothelial Basal Medium MCB-131 (amino acid, glucose, sodium pyruvate, and phenol red free; US Biologicals) containing a defined custom amino acid concentration based on physiological concentrations in blood of patients with SCD (thus recapitulating observed metabolic imbalances such as the depletion of certain essential amino acids including arginine and aspartate and enrichment of certain non-essential amino acids including glutamate and asparagine), dialyzed FBS (Hyclone), human EGF (Lonza), human VEGF (Lonza), R3-Insulin-like Growth Factor-1 (Lonza), ascorbic acid (Lonza), hydrocortisone (Lonza), human FGF-beta (Lonza), and gentamicin/amphotericin-b (Lonza), glucose, 10 mM HEPES, sodium pyruvate, and sodium bicarbonate supplemented with one of the following: • a. PBS (vehicle control), • b. 0.5 ng/mL Tumor Necrosis Factor alpha (TNFα) and PBS, or; • c. 0.5 ng/mL TNF-α and amino acid treatments at 20× mean physiological concentrations in plasma based on values published in the Human Metabolome Database (HMDB) in PBS.
Supernatants were analyzed for IL-6 concentrations using a Human Cytokines FirePlex-HT Panel 1 kit (abcam) according to the manufacturer-supplied instructions. Particles were imaged on a high content imager (Molecular Devices), and results were interpolated from a standard curve with FirePlex Analysis Workbench Software (abcam) according manufacturer's recommendations.

VCAM-1 = VCAM-1 cell integrated intensity in HLMVEC treated with TNF-α (immunofluorescence); format: cell-based, human; settings: HLMVEC + 0.5 ng/mL TNF-α, 24 h; amino acids 20x HMDB, Nac/Cit/Car 5 mM as bracketed
Procedure: as §2, §3
(§4) After 24 hours of treatment, cells were washed once with 150 μL of DPBS (Gibco), then fixed with 4% paraformaldehyde. Following fixation, cells were stained with anti-ICAM-1 [MEM-111] (mouse IgG2a anti-human; abcam) and anti-VCAM1 [1.4C3] (mouse IgG1, K anti-human; abcam) primary antibodies at 1000×, and 100× dilutions respectively. Cells were then stained with Goat anti-Mouse IgG2a Cross-Adsorbed Secondary Antibody, Alexa Fluor 594 (Invitrogen) and Goat anti-Mouse IgG1 Cross-Adsorbed Secondary Antibody, Alexa Fluor 647 (Invitrogen) secondary antibodies. Nuclei were stained with Hoechst 3342 (Life Technologies).
(§5) Antibody binding was detected by fluorescence microscopy using a high content imager (Molecular Devices). Images were analyzed using MetaXpress 6 software to determine the integrated intensity per cell for each wavelength corresponding to ICAM-1 or VCAM-1.

HLMVEC = assay: META-rank score, composite of VCAM1, ICAM1 and IL6 in the HLMVEC model; format: cell-based, human; settings: HLMVEC + TNF-α; lower score = more optimal; 20x HMDB / 5 mM
Procedure: The ability of single amino acids and combinations to simultaneously impact these phenotypes was measured by a META-rank score (Tables 17 and 18). META-rank score is a composite measure that considers the optimal impact on all 3 phenotypes (e.g. decrease VCAM1, ICAM1, and IL6) in the HLMVEC model.

ICAM-1 = ICAM-1 cell integrated intensity in HLMVEC treated with TNF-α (immunofluorescence); format: cell-based, human; settings: HLMVEC + 0.5 ng/mL TNF-α, 24 h; amino acids 20x HMDB, Nac/Cit/Car 5 mM as bracketed
Procedure: as §2, §3, §4, §5

[3] = Donor 2, Conc. 153 μM (baseline)
[4] = Donor 2, Conc. 234 μM (baseline)

CC(C)C[C@H](N)C(=O)O [Leucine]
TNF-α Measurements Mean (TNFα; Donor 1, Conc. 153 μM (baseline)): 0 | TNF-α Measurements Mean (TNFα; Donor 1, Conc. 3054 μM): 42.04 | TNF-α Measurements Mean (TNFα; Donor 1, Conc. 7635 μM): −23.04 | TNF-α Measurements Mean (TNFα; Donor 1, Conc. 15270 μM): −46.21 | TNF-α Measurements Mean (TNFα; [3]): 0 | TNF-α Measurements Mean (TNFα; Donor 2, Conc. 3054 μM): 31.74 | TNF-α Measurements Mean (TNFα; Donor 2, Conc. 7635 μM): 41.98 | TNF-α Measurements Mean (TNFα; Donor 2, Conc. 15270 μM): 46.69 | effect on LPS-induced TNF-α secretion (TNFα; Donor 2, Two Way ANOVA Dunnett): increased | Donor 1 IL-6 Measurements Mean (IL-6 [1]; Conc. 153 μM (baseline)): 0 | Donor 1 IL-6 Measurements Mean (IL-6 [1]; Conc. 3054 μM): 244.9743 | Donor 1 IL-6 Measurements Mean (IL-6 [1]; Conc. 7635 μM): −69.9873 | Donor 1 IL-6 Measurements Mean (IL-6 [1]; Conc. 15270 μM): 84.46 | Donor 2 IL-6 Measurements Mean (IL-6 [1]; [3]): 7.11E−15 | Donor 2 IL-6 Measurements Mean (IL-6 [1]; Donor 2, Conc. 3054 μM): 29.61 | Donor 2 IL-6 Measurements Mean (IL-6 [1]; Donor 2, Conc. 7635 μM): 30.46 | Donor 2 IL-6 Measurements Mean (IL-6 [1]; Donor 2, Conc. 15270 μM): 47.6 | effect on LPS-induced IL-6 secretion (IL-6 [1]; Donor 2, Two Way ANOVA Dunnett): increased

NCCCC[C@H](N)C(=O)O [Lys]
Secreted IL6 Median (IL-6 [2]): 0.132 | VCAM-1 Cell Integrated Intensity Median (VCAM-1): 0.025 | Meta-Rank (Table 18) (HLMVEC): 15.5 | Metarank (Table 17) (HLMVEC): 29 | ICAM-1 Cell Integrated Intensity Median (ICAM-1): 0.064

NCCC[C@H](N)C(=O)O [Orn]
Secreted IL6 Median (IL-6 [2]): −0.378 | VCAM-1 Cell Integrated Intensity Median (VCAM-1): −0.196 | Meta-Rank (Table 18) (HLMVEC): 6.5 | Metarank (Table 17) (HLMVEC): 11 | ICAM-1 Cell Integrated Intensity Median (ICAM-1): −0.197

N[C@@H](CO)C(=O)O [Ser]
Secreted IL6 Median (IL-6 [2]): −0.153 | VCAM-1 Cell Integrated Intensity Median (VCAM-1): 0.139 | Meta-Rank (Table 18) (HLMVEC): 19 | Metarank (Table 17) (HLMVEC): 23 | ICAM-1 Cell Integrated Intensity Median (ICAM-1): 0.076

N[C@@H](Cc1c[nH]c2ccccc12)C(=O)O [Trp]
Secreted IL6 Median (IL-6 [2]): −0.357 | VCAM-1 Cell Integrated Intensity Median (VCAM-1): 0.162 | Meta-Rank (Table 18) (HLMVEC): 24 | Metarank (Table 17) (HLMVEC): 12 | ICAM-1 Cell Integrated Intensity Median (ICAM-1): 0.171

CC(C)[C@H](N)C(=O)O [Val]
Secreted IL6 Median (IL-6 [2]): −0.224 | VCAM-1 Cell Integrated Intensity Median (VCAM-1): 0.315 | Meta-Rank (Table 18) (HLMVEC): 25.5 | Metarank (Table 17) (HLMVEC): 18 | ICAM-1 Cell Integrated Intensity Median (ICAM-1): 0.167

CC(C)[C@H](N)C(=O)O [Valine]
TNF-α Measurements Mean (TNFα; Donor 1, Conc. 234 μM (baseline)): 0 | TNF-α Measurements Mean (TNFα; Donor 1, Conc. 4684 μM): −40.37 | TNF-α Measurements Mean (TNFα; Donor 1, Conc. 11710 μM): −41.77 | TNF-α Measurements Mean (TNFα; Donor 1, Conc. 23420 μM): −14.98 | TNF-α Measurements Mean (TNFα; [4]): −4.7E−15 | TNF-α Measurements Mean (TNFα; Donor 2, Conc. 4684 μM): −0.00221 | TNF-α Measurements Mean (TNFα; Donor 2, Conc. 11710 μM): −0.835 | TNF-α Measurements Mean (TNFα; Donor 2, Conc. 23420 μM): −1.251 | TNF-α Measurements Mean (TNFα; Donor 3, Conc. 234 μM (baseline)): −2.4E−15 | TNF-α Measurements Mean (TNFα; Donor 3, Conc. 4684 μM): 0.126 | TNF-α Measurements Mean (TNFα; Donor 3, Conc. 11710 μM): −2.599 | TNF-α Measurements Mean (TNFα; Donor 3, Conc. 23420 μM): 3.688 | Donor 1 IL-6 Measurements Mean (IL-6 [1]; Conc. 234 μM (baseline)): 0 | Donor 1 IL-6 Measurements Mean (IL-6 [1]; Conc. 4684 μM): −85.9843 | Donor 1 IL-6 Measurements Mean (IL-6 [1]; Conc. 11710 μM): −97.25 | Donor 1 IL-6 Measurements Mean (IL-6 [1]; Conc. 23420 μM): −106.268 | Donor 2 IL-6 Measurements Mean (IL-6 [1]; [4]): −4.7E−15 | Donor 2 IL-6 Measurements Mean (IL-6 [1]; Donor 2, Conc. 4684 μM): −4.528 | Donor 2 IL-6 Measurements Mean (IL-6 [1]; Donor 2, Conc. 11710 μM): −1.196 | Donor 2 IL-6 Measurements Mean (IL-6 [1]; Donor 2, Conc. 23420 μM): 4.396 | Donor 3 IL-6 Measurements Mean (IL-6 [1]; Conc. 234 μM (baseline)): 4.26E−14 | Donor 3 IL-6 Measurements Mean (IL-6 [1]; Conc. 4684 μM): −30.0609 | Donor 3 IL-6 Measurements Mean (IL-6 [1]; Conc. 11710 μM): −43.8022 | Donor 3 IL-6 Measurements Mean (IL-6 [1]; Conc. 23420 μM): −29.2004
